Measured values as given in paper PMC6856162 (2019).

What was measured:
[1] = tested on: (5′CAG/3′GAC)x6; AAx6; AA × 6 (RNA, repeat) GGGAGAGGGUUUAAUCAGCAGCAGCAGCAGCAGUACGAAAGUACAGCAGCAGCAGCAGCAGAUUGGAUCCGCAAGG; assay: UV melting; conditions: Na+ 10 mM Na2HPO4 + 0.1 M NaCl (melting buffer not given; assumed same as CD/ITC buffer, which also has 50 mM EDTA); derived from two Tm (51.8, 57.9); D/N 2.0; per base
[2] = tested on: (5′CAG/3′GAC)x6; AAx6; AA × 6 (RNA, repeat) GGGAGAGGGUUUAAUCAGCAGCAGCAGCAGCAGUACGAAAGUACAGCAGCAGCAGCAGCAGAUUGGAUCCGCAAGG; assay: ITC; conditions: 0.1 M NaCl; 10 mM Na2HPO4, EDTA, pH 7.2; two-site fit; nanomolar range stated
[3] = tested on: (5′CAG/3′GAC)x6; AAx6; AA × 6 (RNA, repeat) GGGAGAGGGUUUAAUCAGCAGCAGCAGCAGCAGUACGAAAGUACAGCAGCAGCAGCAGCAGAUUGGAUCCGCAAGG; assay: fluorescence titration; conditions: room temperature; two-site fit
[4] = tested on: 5′r(CCGCAGCGG)3′ (RNA, mismatch bulge abasic) CCGCAGCGG; assay: 1D and 2D NMR titration; conditions: 298 K; D/N 0.0 to 2.0

Question: With `Cc1cc2ccccc2nc1-c1ccccc1F` as the compound, how does the dTm [1] read?
Answer: The dTm was 6.1 °C.

Question: What about the binding [2] of the same compound?
Answer: Its binding is “yes”.

Question: What about the binding [3] of the same compound?
Answer: Its binding is “yes”.

Question: And the binding [4]?
Answer: Its binding is “yes”.
